In US6596772B1, “Phosphate mimics and methods of treatment using phosphatase inhibitors” (Sugen, Inc., priority 1999, dated 2003) one finds IC50 data, which are given here for 17 compounds.

Like-named read-outs stand apart in the source and are kept apart here.

Common to all, as to assay: PTP IC50 assay, fluorescent substrate DiFMUP
Assay type in all cases: biochemical

Assay [1] deals with T1, PTP SHP2 (Homo sapiens, UniProt Q06124).
T1 construct: The catalytic domain was amplified using the following oligonucleotides; made in house; host or cells: Sf-9 insect cells (pFastBac-G2T)
T1 sequence (Q06124 247-517 limits assumed): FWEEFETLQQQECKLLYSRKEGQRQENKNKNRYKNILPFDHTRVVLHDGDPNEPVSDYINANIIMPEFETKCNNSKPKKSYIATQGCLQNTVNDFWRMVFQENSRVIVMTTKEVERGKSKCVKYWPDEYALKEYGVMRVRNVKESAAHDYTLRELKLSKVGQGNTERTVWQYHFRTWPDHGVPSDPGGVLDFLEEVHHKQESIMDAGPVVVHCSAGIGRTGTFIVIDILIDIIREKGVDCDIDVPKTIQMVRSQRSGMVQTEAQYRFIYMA
The conditions noted are these: DiFMUP as substrate, 25° C.; read-out: PTP IC50 SHP2. An excerpt: SHP-2 cDNA was used as described earlier (Vogel W., et al.,1993, Science, 259:1611-4). The catalytic domain was amplified using the following oligonucleotides 5′oligo: 5′-[…]-3′ (SEQ ID NO: 2) 3′oligo: 5′-[…]-3′ (SEQ ID NO: 3) and subsequently subcloned into BamH1-Xba-1 sites. It was then ligated into pfas Bac-G2T BamH1-Xba-1 sites.
(§1) The following in vitro assay procedure is preferred to determine the level of activity and effect of the different compounds of the present invention on one or more of the PTPs. Similar assays can be designed along the same lines for any PTP using techniques well known in the art.
(§2) The catalytic assays described herein are performed in a 96-well format. The general procedure begins with the determination of PTP optimal pH using a three-component buffer system that minimizes ionic strength variations across a wide range of buffer pH. Next, the Michaelis-Menten constant, or Km, is determined for the substrate 6,8-difluoro-4-methylumbelliferyl phosphate (DiFMUP). This Km value is subsequently used as the substrate reaction concentration for compound screening. Finally, the test PTP is exposed to varying concentrations of compound for fifteen minutes and allowed to react with substrate for ten minutes. The results are plotted as percent inhibition versus compound concentration and the IC50 interpolated from the plot.
(§3) All assays were performed using DiFMUP as substrate. The optimum pH and substrate Km was determined for each PTP used.
(§4) PTPase activity was assayed at 25° C. in a 100-μl reaction mixture containing an appropriate concentration of DiFMUP as substrate. The reaction was initiated by addition of the purified PTP and quenched after 10 min by addition of 1% H2O2/100 mM NaCl. The non-enzymatic hydrolysis of the substrate was corrected by measuring the control without the addition of the enzyme. The amount of DiFMU produced was determined from the increase in the fluorescence (360 nm excitation/460 nm emission) over that of background in the absence of PTPase. To determine the kinetic parameter, Km, the initial velocities were measured at various substrate concentrations and the data were fitted to the Michaelis equation where velocity=(Vmax*[S])/(Km+[S]), and [S]=substrate reaction concentration.
(§5) The effect of the compounds on PTP was evaluated at 25° C. using DiFMUP as substrate. PTP was pre-incubated for fifteen minutes with various concentrations of compound. Substrate was then added at a fixed concentration (usually equal to the Km previously calculated). After 10 minutes, the reaction was quenched. The hydrolysis of DiFMUP was followed as described above. The percent inhibition was calculated as follows: Percent Inhibition=[(control signal−compound signal)/control signal]×100%. The IC50 was then determined by interpolation of a percent inhibition versus compound concentration plot.
(§6) Plasmids designed for bacterial GST-PTP fusion protein expression were derived by insertion of PCR-generated human PTP fragments into pGEX vectors (Pharmacia Biotech). Several of these constructs were then used to subclone phosphatases into pFastBac-1 for expression in Sf-9 insect cells. Oligonucleotides used for the initial amplification of PTP genes are as described above. The cDNAs were prepared using the Gilbo BRL superscript preamplification system on RNAs purchased from Clontech.

Assay [2] addresses T2, PTP 1B (Homo sapiens, UniProt P18031).
T2 construct: made in house; host or cells: Sf-9 insect cells (pFastBac-G2T)
T2 sequence (P18031 1-435): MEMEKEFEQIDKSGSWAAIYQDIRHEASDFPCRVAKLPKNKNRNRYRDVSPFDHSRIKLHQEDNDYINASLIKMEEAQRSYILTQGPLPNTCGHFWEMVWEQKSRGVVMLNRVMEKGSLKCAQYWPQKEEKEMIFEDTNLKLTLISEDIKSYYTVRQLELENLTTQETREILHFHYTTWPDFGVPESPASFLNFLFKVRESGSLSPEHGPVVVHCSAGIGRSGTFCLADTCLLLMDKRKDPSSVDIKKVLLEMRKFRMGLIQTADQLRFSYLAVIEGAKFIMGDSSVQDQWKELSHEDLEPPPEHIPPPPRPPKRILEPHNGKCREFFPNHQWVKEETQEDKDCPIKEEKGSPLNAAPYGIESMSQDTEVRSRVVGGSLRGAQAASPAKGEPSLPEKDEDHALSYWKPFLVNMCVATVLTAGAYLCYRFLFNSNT
From the text: The PTP1b cDNA was amplified from human placenta single strand cDNA (Clontech RNA) using the following oligonucleotides: 5′oligo: 5′-[…] (SEQ ID NO: 4) 3′oligo: 5′-[…] (SEQ ID NO: 5) It was subsequently ligated into pFasBac G2TBamH1Xba-1 sites.
as §1, §2, §3, §4, §5, §6

The target in assay [3] is T3, PTP EPSILON (Homo sapiens, UniProt P23469).
T3 construct: made in house; host or cells: Sf-9 insect cells (pFastBac-G2T); a pGEX 6P-1 construct also existed
From the text: The PTPepsilon cDNA was amplified from human placenta single-strand cDNA (Clontech RNA) using the following oligonucleotides: 5′oligo: 5′-[…]-3′ (SEQ ID NO: 6) 3′oligo: 5′-[…]-3′ (SEQ ID NO: 7) After cloning this PCR product into the Bam HI/Xho I sites of pGEX 6P-1, this phosphatase was subcloned using the same restriction sites in pFastBac-G2T.
as §1, §2, §3, §4, §5, §6

Where [4] appears, read: DiFMUP as substrate, 25° C., read-out: PTP IC50 1B.
The mark [5] stands for this setting: DiFMUP as substrate, 25° C., read-out: PTP IC50 Epilson.

T3 sequence (P23469 80-393 limits assumed): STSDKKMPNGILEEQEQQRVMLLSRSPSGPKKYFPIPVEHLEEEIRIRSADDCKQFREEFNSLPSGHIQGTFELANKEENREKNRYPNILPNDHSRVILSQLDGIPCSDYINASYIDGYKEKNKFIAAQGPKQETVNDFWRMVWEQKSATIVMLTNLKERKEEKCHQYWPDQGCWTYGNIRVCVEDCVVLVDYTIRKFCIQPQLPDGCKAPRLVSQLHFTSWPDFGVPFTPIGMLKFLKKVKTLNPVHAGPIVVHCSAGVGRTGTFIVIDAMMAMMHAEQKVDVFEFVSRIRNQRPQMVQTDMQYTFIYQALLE

As to `O=C(Cc1ccccc1CC(=O)Nc1ccc(S(=O)(=O)C(F)(F)F)cc1)Nc1ccc(S(=O)(=O)C(F)(F)F)cc1` [Example 32, N-(4-Trifluoromethanesulfonyl-phenyl)-2-{2-[(4-trifluoromethanesulfonyl-phenylcarbamoyl)-methyl]-phenyl}-acetamide], the values for the IC50 in assay [1], in assay [2] (setting [4]) and in assay [3] (setting [5]) were 14.6 µM, 7.8 µM and 17.4 µM, respectively.

For `O=C(Cc1cccc(CC(=O)Nc2ccc(S(=O)(=O)C(F)(F)F)cc2)c1)Nc1ccc(S(=O)(=O)C(F)(F)F)cc1` [Example 33, N-(4-Trifluoromethanesulfonyl-phenyl)-2-{3-[(4-trifluoromethanesulfonyl-phenylcarbamoyl)-methyl]-phenyl}-acetamide], the results for the IC50 in assay [1], in assay [2] (setting [4]) and in assay [3] (setting [5]) were 2.3 µM, 2.3 µM and 20.4 µM, respectively.

As for `O=C(Cc1ccc(CC(=O)Nc2ccc(S(=O)(=O)C(F)(F)F)cc2)cc1)Nc1ccc(S(=O)(=O)C(F)(F)F)cc1` [Example 34, N-(4-Trifluoromethanesulfonyl-phenyl)-2-{4-[(4-trifluoromethanesulfonyl-phenylcarbamoyl)-methyl]-phenyl}-acetamide], the IC50 was found to be 2.3 µM in assay [1], 3.9 µM in assay [2] (setting [4]) and 9.1 µM in assay [3] (setting [5]).

As for `CCn1c(-c2ccc(C(=O)OC)cc2)nc2cc(S(=O)(=O)C(F)(F)F)ccc21` [Example 35, 4-(1-Ethyl-5-trifluoromethanesulfonyl-1H-benzoimidazol-2-yl)-benzoic acid methyl ester], the IC50 in assay [1] is 31.6 µM; in assay [3] (setting [5]) it was 32.5 µM.

For `CCn1c(-c2ccc(C(=O)O)cc2)nc2cc(S(=O)(=O)C(F)(F)F)ccc21` [Example 36, 4-(1-Ethyl-5-trifluoromethanesulfonyl-1H-benzoimidazol-2-yl)-benzoic acid], the IC50 in assay [1] is 58 µM; in assay [2] (setting [4]), above 20 µM; in assay [3] (setting [5]) it was 61.2 µM.

For the compound `CCn1c(-c2ccc(C(=O)Nc3ccncc3)cc2)nc2cc(S(=O)(=O)C(F)(F)F)ccc21` [Example 37, 4-(1-Ethyl-5-trifluoromethanesulfonyl-1H-benzoimidazol-2-yl)-N-pyridin-4-yl-benzamide], the half-inhibitory concentration (IC50) in assay [1] is 19 µM; in assay [2] (setting [4]), above 20 µM; in assay [3] (setting [5]), 20.5 µM.

On to `CCOC(=O)CNC(=O)C(c1ccc(S(=O)(=O)C(F)(F)F)cc1)N(C)C(C)=O` (centres unmarked) [Example 47, [2-(Acetyl-methyl-amino)-2-(4-trifluoromethanesulfonyl-phenyl)-acetylamino]-acetic acid ethyl ester], for which the IC50 in assay [1] was above 100 µM.

Regarding `CCOC(=O)CNC(=O)C(c1ccc(S(=O)(=O)C(F)(F)F)cc1)N(C(=O)c1ccccc1)C1CCCCC1` (centres unmarked) [Example 48, [2-(Benzoyl-cyclohexyl-amino)-2-(4-trifluoromethanesulfonyl-phenyl)-acetylamino]-acetic acid ethyl ester], the IC50 in assay [1] is 37.7 µM; in assay [2] (setting [4]), 22.7 µM.

Turning to `CCOC(=O)c1cc(Oc2ccc(S(=O)(=O)C(F)(F)F)cc2[N+](=O)[O-])c(C(=O)OCC)cc1Oc1ccc(S(=O)(=O)C(F)(F)F)cc1[N+](=O)[O-]` [Example 54, 2,5-Bis-(2-nitro-4-trifluoromethanesulfonyl-phenoxy)-terephthalic acid diethyl ester], the IC50 was 0.7 µM in assay [1] and above 20 µM in assay [2] (setting [4]).

Take `O=[N+]([O-])c1cc(S(=O)(=O)C(F)(F)F)ccc1OCC(CN1CCCCC1)Oc1ccc(S(=O)(=O)C(F)(F)F)cc1[N+](=O)[O-]` (centres unmarked) [Example 55, 1-[2,3-Bis-(2-nitro-4-trifluoromethanesulfonyl-phenoxy)-propyl]-piperidine]: the IC50 in assay [1] amounted to 3.3 µM; in assay [3] (setting [5]), 2.4 µM.

Take `O=[N+]([O-])c1cc(S(=O)(=O)C(F)(F)F)ccc1OCC(CN1CCOCC1)Oc1ccc(S(=O)(=O)C(F)(F)F)cc1[N+](=O)[O-]` (centres unmarked) [Example 56, 4-[2,3-Bis-(2-nitro-4-trifluoromethanesulfonyl-phenoxy)-propyl]-morpholine]: the results for the IC50 in assay [1] and in assay [2] (setting [4]) were 2.9 µM and 4.8 µM, respectively.

For `O=[N+]([O-])c1ccccc1NCC(COc1ccc(S(=O)(=O)C(F)(F)F)cc1[N+](=O)[O-])Oc1ccc(S(=O)(=O)C(F)(F)F)cc1[N+](=O)[O-]` (centres unmarked) [Example 57, [2,3-Bis-(2-nitro-4-trifluoromethanesulfonyl-phenoxy)-propyl]-(2-nitro-phenyl)-amine], the figures for the IC50 in assay [2] and in assay [3] were above 20 µM and 0.6 µM, respectively.

Consider `NS(=O)(=O)c1ccc(NCC(O)COc2ccc(S(=O)(=O)C(F)(F)F)cc2[N+](=O)[O-])cc1` (centres unmarked) [Example 61, 4-[2-Hydroxy-3-(2-nitro-4-trifluoromethanesulfonyl-phenoxy)-propylamino]-benzenesulfonamide], for which the IC50 came to 1.7 µM in assay [1] and 7.4 µM in assay [3] (setting [5]).

As to `NS(=O)(=O)c1ccc(NCC(COc2ccc(S(=O)(=O)C(F)(F)F)cc2[N+](=O)[O-])Oc2ccc(S(=O)(=O)C(F)(F)F)cc2[N+](=O)[O-])cc1` (centres unmarked) [Example 62, 4-[2,3-Bis-(2-nitro-4-trifluoromethanesulfonyl-phenoxy)-propylamino]-benzenesulfonamide], the IC50 in assay [1] was determined as 2.3 µM; in assay [3] (setting [5]), 5.7 µM.

As to `O=S(=O)(c1ccc(-c2ncc(-c3ccc4ccccc4c3)o2)cc1)C(F)F` [Example 64, 2-[4-(Difluoro-methanesulfonyl)-phenyl]-5-naphthalen-2-yl-oxazole], the results for the IC50 in assay [1] and in assay [2] (setting [4]) were 5.9 µM and 5.4 µM, respectively.

For the compound `Cc1ccc(Nc2ccc(S(=O)(=O)C(F)(F)C(F)F)cc2[N+](=O)[O-])cc1` [Example 65, [2-Nitro-4-(1,1,2,2-tetrafluoro-ethanesulfonyl)-phenyl]-p-tolyl-amine], the 50% inhibitory concentration (IC50) in assay [1] worked out at 13.1 µM; in assay [2] (setting [4]) it was 11.5 µM.

For `Cc1cc2cc(NS(=O)(=O)C(F)(F)F)ccc2n1CC(=O)Nc1ccc(C(=O)O)cc1` [Example 85, 4-[2-(2-Methyl-5-trifluoromethanesulfonylamino-indol-1-yl)-acetylamino]-benzoic acid], the IC50 in assay [2] (setting [4]) was 17.4 µM; in assay [3] (setting [5]), above 20 µM.
